Data as given in paper PMC4409382, “Structural Analysis of the 14-3-3ζ/Chibby Interaction Involved in Wnt/β-Catenin Signaling” (PLoS ONE, 2015).
Changes are numbered by the printed parent chain. Square brackets hold non-standard residues; d marks the D form. Peptide text beside a SMILES is read from it. pS = N[C@@H](COP(=O)(O)O)C(=O)O

Assays:
Format in all cases: binding
14-3-3ζ = biological target: T1, 14-3-3ζ (Homo sapiens, UniProt P63104); test: ITC of Cby peptides titrated into 14-3-3ζ; settings: for Kd: 25°C (298.15 K); for n (binding stoichiometry of monomeric 14-3-3 and Cby peptide): 25°C; for T∆S / ∆G / ∆H / TΔS / ΔG / ΔH: 298.15 K; for T∆S / ∆G / ∆H: duplicate set (S1 Table); for TΔS / ΔG / ΔH: pH 6.8, Table 1 set of duplicate experiments
T1 construct: Both full-length 14-3-3ζ and 14-3-3ζΔC12 were expressed as N-terminally His-tagged protein; His tag (TEV-cleavable) (N, cleaved yes); made in house; host or cells: Escherichia coli BL21 (DE3) pLysS
T1 sequence (P63104 1-245): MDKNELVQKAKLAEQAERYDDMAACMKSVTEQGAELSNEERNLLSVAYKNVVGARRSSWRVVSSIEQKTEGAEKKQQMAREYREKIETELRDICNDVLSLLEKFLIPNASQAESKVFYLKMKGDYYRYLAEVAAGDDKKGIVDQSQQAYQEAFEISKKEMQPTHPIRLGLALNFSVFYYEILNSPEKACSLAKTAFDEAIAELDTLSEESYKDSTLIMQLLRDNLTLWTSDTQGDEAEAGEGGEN
Excerpt: (§1) The human14-3-3ζ ORF purchased from GeneCopoeia was transferred into Gateway pDEST17 vector (Invitrogen). The 14-3-3ζΔC12, where the 12 C-terminal residues were deleted, was then generated from the full-length construct using QuikChange II Site-Directed Mutagenesis Kit (Strategene). Both full-length 14-3-3ζ and 14-3-3ζΔC12 were expressed as N-terminally His-tagged protein in Escherichia coli (E. coli) BL21 (DE3) pLysS in M9 medium. For unlabeled protein, protein expression was induced at an O.D.600 of 0.9 by adding 0.75 mM IPTG at 18°C for 24 h. The ^15N, ^13C, ^2H labeled 14-3-3ζΔC12 was produced by growing E. coli in deuterated M9 medium. Cells adapted to 70% D2O were used to inoculate a 1 L culture of M9 prepared in 100% D2O. Cells were grown at 37°C and overexpression was induced at an O.D.600 of 0.6 with 0.75 mM IPTG. After a 60-h induction at 18°C, the cells were harvested. All 14-3-3ζ constructs used in this study were purified from the crude lysate by affinity chromatography using Ni Sepharose Fast Flow beads (Amersham Biosciences). The tag was then cleaved by overnight incubation with His-tagged tobacco etch virus (TEV) protease at 25°C. The cleaved 14-3-3ζ, which retains an N-terminal glycine, was purified by passing the mixture through Ni Sepharose Fast Flow beads. The final yields for the 14-3-3ζ proteins were ~50 mg per L of M9 media (including deuterated media).
(§2) The Cby peptides used in this study were purchased from GenScript USA Inc. and the TUFTS University Core Facility. From GenScript USA Inc.: Cby 13-mer (NH2-^12KTPPRKSASLSNL^24-COOH), Cby S20D 13-mer (NH2-^12KTPPRKSADLSNL^24-COOH), Cby S20E 13-mer (NH2-^12KTPPRKSAELSNL^24-COOH), pCby 13-mer (NH2-^12KTPPRKSApSLSNL^24-COOH) and pCby 18-mer ((NH2-^12KTPPRKSApSLSNLHSLDR^29-COOH). From TUFTS: pCby 7-mer (Ac-^16RKSApSLS^22-NH2), pCby 11-mer (NH2-^12KTPPRKSApSLS^22-NH2), pCby S22P 7-mer (Ac-^16RKSApSLP^22-NH2), pCby S22P 13-mer (NH2-^12KTPPRKSApSLPNL^24-COOH) and pCby S22P 18-mer ([…]). Peptides were dissolved and dialyzed in 50 mM sodium phosphate, 100 mM NaCl at pH 6.8 for ITC and NMR experiments.
(§3) ITC experiments were performed on a VP-ITC instrument (MicroCal) at 25°C. The protein and peptide samples were dialyzed into a buffer containing 50 mM sodium phosphate, 100 mM NaCl, 1 mM DTT at pH 6.8 and degassed before the experiments. In a typical experiment, 5 μL aliquots of ~1–2 mM peptide were titrated stepwise into the 1.4 mL sample cell containing ~100–200 μM 14-3-3ζ. The association constant (Ka), molar binding stoichiometry (n) and the binding enthalpy (ΔH), entropy (ΔS) and Gibbs free energy (ΔG) were determined by fitting the binding isotherm to a one-site model with MicroCal Origin7 software. All ITC experiments were performed in duplicate. A duplicate set of thermodynamic derived binding parameters are found in S1 Table. Peptide and protein concentrations were determined from amino acid analysis (Amino Acid Analysis Facility, SickKids, Toronto, ON).

14-3-3ζΔC12 = biological target: T2, 14-3-3ζΔC12 (Homo sapiens, UniProt P63104); test: ITC of Cby peptides titrated into 14-3-3ζΔC12; settings: 14-3-3ζΔC12 in ITC cell; for n (binding stoichiometry of monomeric 14-3-3 and Cby peptide): 25°C
T2 construct: The 14-3-3ζΔC12, where the 12 C-terminal residues were deleted, was then generated from the full-length construct; His tag (TEV-cleavable) (N, cleaved yes); made in house; host or cells: Escherichia coli BL21 (DE3) pLysS
T2 sequence (P63104 1-233 limits assumed): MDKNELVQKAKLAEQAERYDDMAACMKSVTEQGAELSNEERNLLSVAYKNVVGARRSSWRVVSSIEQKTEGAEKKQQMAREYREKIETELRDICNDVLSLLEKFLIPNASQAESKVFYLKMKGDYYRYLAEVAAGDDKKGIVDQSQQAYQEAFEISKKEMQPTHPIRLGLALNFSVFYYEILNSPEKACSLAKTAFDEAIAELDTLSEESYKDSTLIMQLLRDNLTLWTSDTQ
Excerpt: as §1, §2, §3

14-3-3ζ K49A = biological target: T3, 14-3-3ζ K49A (Homo sapiens, UniProt P63104, K49A); test: ITC of Cby peptides titrated into 14-3-3ζ K49A; settings: for n (binding stoichiometry of monomeric 14-3-3 and Cby peptide) / TΔS / ΔG / ΔH / T∆S / ∆G / ∆H: 14-3-3ζ K49A in ITC cell; for n (binding stoichiometry of monomeric 14-3-3 and Cby peptide): 25°C, pH 6.8; for TΔS / ΔG / ΔH / T∆S / ∆G / ∆H: 298.15 K; for ΔΔG of binding, 14-3-3ζ K49A compared to WT 14-3-3ζ / effect of 14-3-3ζ K49A mutation on binding affinity (fold reduction): ITC; for ΔΔG of binding, 14-3-3ζ K49A compared to WT 14-3-3ζ: 18-mer peptides; for effect of 14-3-3ζ K49A mutation on binding affinity (fold reduction): versus WT 14-3-3ζ
T3 construct: His tag (TEV-cleavable) (N, cleaved yes); made in house
T3 sequence (P63104 1-245 K49A): T1 sequence (P63104 1-245) with K49A
Excerpt: In numerous crystal structures of 14-3-3 proteins in complex with phosphorylated S/T peptides, the conserved K49 (numbering refers to the ζ isoform) side-chain is observed forming a hydrogen bond with the phosphate group on pS/pT (illustrated in S3 Fig with an elucidated 14-3-3ζ/Raf1 structure). With Cby’s S22 side-chain juxtaposed between 14-3-3ζ residues K49 and R56, the K49 side-chain is sterically hindered from contacting pS20. As such, we speculated that the increases in binding affinity to 14-3-3ζ observed for the S22P mutant peptides might be the result of the favorable contacts between K49 and pS20 facilitated by the proline-induced conformational changes. To test this, a K49A mutation was introduced into 14-3-3ζ and ITC titrations were performed with 18-mer WT and S22P Cby peptides.
as §2, §3

[1] = 50 mM sodium phosphate, 100 mM NaCl, 1 mM DTT, pH 6.8, one-site model, Table 1 set of duplicate experiments
[2] = pH 6.8, duplicate set (S1 Table)
[3] = pH 6.8, Table 1 set of duplicate experiments
[4] = 298.15 K, Table 1 set of duplicate experiments
[5] = 298.15 K, duplicate set (S1 Table)
[6] = Table 1 set of duplicate experiments

n (binding stoichiometry of monomeric 14-3-3 and Cby peptide) (14-3-3ζ; [1]) | n (binding stoichiometry of monomeric 14-3-3 and Cby peptide) (14-3-3ζ; [2]) | T∆S (14-3-3ζ) | ∆G (14-3-3ζ) | ∆H (14-3-3ζ) | TΔS (14-3-3ζ) | ΔG (14-3-3ζ) | ΔH (14-3-3ζ) | n (binding stoichiometry of monomeric 14-3-3 and Cby peptide) (14-3-3ζΔC12; [3]) | n (binding stoichiometry of monomeric 14-3-3 and Cby peptide) (14-3-3ζΔC12; [2]) | TΔS (14-3-3ζΔC12; [4]) | ΔG (14-3-3ζΔC12; [4]) | ΔH (14-3-3ζΔC12; [4]) | T∆S (14-3-3ζΔC12; [5]) | ∆G (14-3-3ζΔC12; [5]) | ∆H (14-3-3ζΔC12; [5]) | n (binding stoichiometry of monomeric 14-3-3 and Cby peptide) (14-3-3ζ K49A; [6]) | n (binding stoichiometry of monomeric 14-3-3 and Cby peptide) (14-3-3ζ K49A; duplicate set (S1 Table)) | TΔS (14-3-3ζ K49A; [6]) | ΔG (14-3-3ζ K49A; [6]) | further results | Compound
1.00 | 1.07 | 4.07 kcal/mol | -6.67 ± 0.02 kcal/mol | -2.60 ± 0.03 kcal/mol | 3.97 kcal/mol | -6.60 ± 0.02 kcal/mol | -2.63 ± 0.02 kcal/mol | 0.99 | 1.06 | 4.50 kcal/mol | -6.58 ± 0.04 kcal/mol | -2.08 ± 0.03 kcal/mol | 4.52 kcal/mol | -6.60 ± 0.02 kcal/mol | -2.08 ± 0.03 kcal/mol | – | – | – | – | Kd (14-3-3ζ; 50 mM sodium phosphate, 100 mM NaCl, 1 mM DTT, pH 6.8, duplicate set (S1 Table)): 12.8 ± 0.5 µM; Kd (14-3-3ζ; [1]): 14.5 ± 0.6 µM; Kd (14-3-3ζΔC12; 298.15 K, pH 6.8, duplicate set (S1 Table)): 14.5 ± 0.6 µM | CC(C)C[C@H](NC(=O)[C@H](CC(N)=O)NC(=O)[C@H](CO)NC(=O)[C@H](CC(C)C)NC(=O)[C@H](COP(=O)(O)O)NC(=O)[C@H](C)NC(=O)[C@H](CO)NC(=O)[C@H](CCCCN)NC(=O)[C@H](CCCNC(=N)N)NC(=O)[C@@H]1CCCN1C(=O)[C@@H]1CCCN1C(=O)[C@@H](NC(=O)[C@@H](N)CCCCN)[C@@H](C)O)C(=O)O [Cby 13-mer] (H-KTPPRKSA[pS]LSNL-OH)
1.05 | 1.08 | 0.79 kcal/mol | -8.76 ± 0.02 kcal/mol | -7.97 ± 0.01 kcal/mol | 0.76 kcal/mol | -8.79 ± 0.02 kcal/mol | -8.03 ± 0.02 kcal/mol | – | – | – | – | – | – | – | – | 1.07 | 0.97 | 0.67 kcal/mol | -7.80 ± 0.06 kcal/mol | fold tighter binding than the S22P 7-mer (14-3-3ζ): ~ 9 fold; ΔH (14-3-3ζ K49A; [6]): -7.13 ± 0.03 kcal/mol; T∆S (14-3-3ζ K49A; duplicate set (S1 Table)): 1.17 kcal/mol; ∆G (14-3-3ζ K49A; duplicate set (S1 Table)): -7.84 ± 0.03 kcal/mol; ∆H (14-3-3ζ K49A; duplicate set (S1 Table)): -6.67 ± 0.04 kcal/mol; ΔΔG of binding, 14-3-3ζ K49A compared to WT 14-3-3ζ (14-3-3ζ K49A): ~ 1.0 kcal/mol; effect of 14-3-3ζ K49A mutation on binding affinity (fold reduction) (14-3-3ζ K49A): ~ 5 fold | CC(C)C[C@H](NC(=O)[C@H](CO)NC(=O)[C@H](Cc1c[nH]cn1)NC(=O)[C@H](CC(C)C)NC(=O)[C@H](CC(N)=O)NC(=O)[C@@H]1CCCN1C(=O)[C@H](CC(C)C)NC(=O)[C@H](COP(=O)(O)O)NC(=O)[C@H](C)NC(=O)[C@H](CO)NC(=O)[C@H](CCCCN)NC(=O)[C@H](CCCNC(=N)N)NC(=O)[C@@H]1CCCN1C(=O)[C@@H]1CCCN1C(=O)[C@@H](NC(=O)[C@@H](N)CCCCN)[C@@H](C)O)C(=O)N[C@@H](CC(=O)O)C(=O)N[C@@H](CCCNC(=N)N)C(=O)O [Cby 18-mer S22P] (H-KTPPRKSA[pS]LPNLHSLDR-OH)
0.96 | 0.94 | 2.91 kcal/mol | -7.24 ± 0.04 kcal/mol | -4.33 ± 0.06 kcal/mol | 2.93 kcal/mol | -7.28 ± 0.03 kcal/mol | -4.35 ± 0.05 kcal/mol | 1.04 | 1.02 | 3.70 kcal/mol | -7.05 ± 0.03 kcal/mol | -3.35 ± 0.06 kcal/mol | 3.77 kcal/mol | -6.92 ± 0.03 kcal/mol | -3.15 ± 0.04 kcal/mol | 1.01 | 1.07 | 3.23 kcal/mol | -7.39 ± 0.05 kcal/mol | greater affinity compared to the Cby 7-mer (fold, in words) (14-3-3ζ): nine-fold; ΔH (14-3-3ζ K49A; [6]): -4.16 ± 0.05 kcal/mol; T∆S (14-3-3ζ K49A; duplicate set (S1 Table)): 3.41 kcal/mol; ∆G (14-3-3ζ K49A; duplicate set (S1 Table)): -7.17 ± 0.06 kcal/mol; ∆H (14-3-3ζ K49A; duplicate set (S1 Table)): -3.76 ± 0.07 kcal/mol; ΔΔG of binding, 14-3-3ζ K49A compared to WT 14-3-3ζ (14-3-3ζ K49A): ~ 0.1 kcal/mol; effect of 14-3-3ζ K49A mutation on binding affinity (fold reduction) (14-3-3ζ K49A): does not affect | CC(C)C[C@H](NC(=O)[C@H](COP(=O)(O)O)NC(=O)[C@H](C)NC(=O)[C@H](CO)NC(=O)[C@H](CCCCN)NC(=O)[C@H](CCCNC(=N)N)NC(=O)[C@@H]1CCCN1C(=O)[C@@H]1CCCN1C(=O)[C@@H](NC(=O)[C@@H](N)CCCCN)[C@@H](C)O)C(=O)N[C@@H](CO)C(=O)N[C@@H](CC(N)=O)C(=O)N[C@@H](CC(C)C)C(=O)N[C@@H](Cc1c[nH]cn1)C(=O)N[C@@H](CO)C(=O)N[C@@H](CC(C)C)C(=O)N[C@@H](CC(=O)O)C(=O)N[C@@H](CCCNC(=N)N)C(=O)O [Cby 18-mer] (H-KTPPRKSA[pS]LSNLHSLDR-OH)
